BindingDB's records for doi:10.1021/jm900095y (National Institute On Drug Abuse-Intramural Research Program, 2009)

Tests used:
[1] = Antagonist activity at human D3 receptor expressed in HEK293 cells assessed as inhibition of quinpirole-stimulated mitogenesis
[2] = Agonist activity at human D3 receptor expressed in HEK293 cells assessed as stimulation of mitogenesis

SMILES | IC50 [1] [nM] | EC50 [2] [nM]
O=C(NCC(O)CCN1CCN(c2cccc(Cl)c2Cl)CC1)c1cc2ccccc2[nH]1 (centres undefined) | 25.7 | 
O=C(NCCC(O)CN1CCN(c2cccc(Cl)c2Cl)CC1)c1cc2cc(I)ccc2o1 (centres undefined) |  | 84
O=C(NCCC(O)CN1CCN(c2cccc(Cl)c2Cl)CC1)c1cc2ccccc2o1 (centres undefined) |  | 22.8
COc1ccc2[nH]c(C(=O)NCCC(O)CN3CCN(c4ccccc4OC)CC3)cc2c1 (centres undefined) | 1.58 | 
COc1ccc2[nH]c(C(=O)NCCC(O)CN3CCN(c4cccc(Cl)c4Cl)CC3)cc2c1 (centres undefined) | 1.51 | 
COc1ccccc1N1CCN(CC(O)CCNC(=O)c2cc3cc(I)ccc3[nH]2)CC1 (centres undefined) | 173 | 
O=C(NCCC(O)CN1CCN(c2cccc(Cl)c2Cl)CC1)c1cc2cc(I)ccc2[nH]1 (centres undefined) | 38 | 
COc1ccccc1N1CCN(CC(O)CCNC(=O)c2cc3cc(F)ccc3[nH]2)CC1 (centres undefined) | 1.76 | 
CCCOc1ccccc1N1CCN(CC(O)CCNC(=O)c2cc3ccccc3[nH]2)CC1 (centres undefined) | 6.51 | 
O=C(NC/C=C/CN1CCN(c2cccc(Cl)c2Cl)CC1)c1cc2ccccc2[nH]1 | 7 | 
COc1ccccc1N1CCN(CCCCNC(=O)c2cc3ccccc3s2)CC1 [Benzo[b]thiophene-2-carboxylic acid {4-[4-(2-methoxy-phenyl)-piperazin-1-yl]-butyl}-amide] | 0.22 | 

Second part, the molecule after the results:

IC50 [1] [nM] | EC50 [2] [nM] | SMILES
39.1 |  | COc1ccccc1N1CCN(CC(O)CCNC(=O)c2cc3ccccc3s2)CC1 (centres undefined)
14.5 |  | COc1ccccc1N1CCN(CC(O)CCNC(=O)c2cc3cc(I)ccc3o2)CC1 (centres undefined)
11.2 |  | COc1ccccc1N1CCN(CC(O)CCNC(=O)c2cc3ccccc3o2)CC1 (centres undefined)
12.1 |  | COc1ccccc1N1CCN(CC(O)CCNC(=O)c2cc3ccccc3[nH]2)CC1 (centres undefined)
1.09 |  | COc1ccccc1N1CCN(C/C=C/CNC(=O)c2cc3ccccc3s2)CC1
14.9 |  | COc1ccccc1N1CCN(C/C=C/CNC(=O)c2cc3ccccc3o2)CC1
22.9 |  | COc1ccccc1N1CCN(CCCCNC(=O)c2cc3cc(I)ccc3o2)CC1 [5-Iodo-benzofuran-2-carboxylic acid {4-[4-(2-methoxy-phenyl)-piperazin-1-yl]-butyl}-amide]
2.39 |  | COc1ccccc1N1CCN(CCCCNC(=O)c2cc3ccccc3o2)CC1 [Benzofuran-2-carboxylic acid {4-[4-(2-methoxy-phenyl)-piperazin-1-yl]-butyl}-amide]
